Data published in paper PMC8880564, “Design, Synthesis, and Biological Evaluation of a Novel VEGFR-2 Inhibitor Based on a 1,2,5-Oxadiazole-2-Oxide Scaffold with MAPK Signaling Pathway Inhibition” (Pharmaceuticals, 2022).
Where two headings read alike, the source gives them in different places.

What was measured:
[1] = system: A549/ATCC; assay: NCI-60 one-dose SRB screening; type: cell-based; conditions: Homo sapiens, Non-Small Cell Lung Cancer, 10 µM one dose, 48 h, read-out: growth percentage
[2] = system: CAKI-1; assay: NCI-60 one-dose SRB screening; type: cell-based; conditions: Homo sapiens, CAKI-1, Renal Cancer, 10 µM one dose, 48 h, read-out: growth percentage
[3] = system: HCC-2998; assay: NCI-60 one-dose SRB screening; type: cell-based; conditions: Homo sapiens, HCC-2998, Colon Cancer, 10 µM one dose, 48 h, read-out: growth percentage
[4] = system: HT29; assay: NCI-60 one-dose SRB screening; type: cell-based; conditions: Homo sapiens, HT-29, HT29, Colon Cancer, 10 µM one dose, 48 h, read-out: growth percentage
[5] = system: M14; assay: NCI-60 one-dose SRB screening; type: cell-based; conditions: Homo sapiens, M14, Melanoma, 10 µM one dose, 48 h, read-out: growth percentage
[6] = system: MCF7; assay: NCI-60 one-dose SRB screening; type: cell-based; conditions: Homo sapiens, MCF7, Breast Cancer, 10 µM one dose, 48 h, read-out: growth percentage
[7] = system: MOLT-4; assay: NCI-60 one-dose SRB screening; type: cell-based; conditions: Homo sapiens, MOLT-4, Leukemia, 10 µM one dose, 48 h, read-out: growth percentage
[8] = system: NCI-H322M; assay: NCI-60 one-dose SRB screening; type: cell-based; conditions: Homo sapiens, Non-Small Cell Lung Cancer, 10 µM one dose, 48 h, read-out: growth percentage
[9] = system: NCI-H460; assay: NCI-60 one-dose SRB screening; type: cell-based; conditions: Homo sapiens, NCI-H460, Non-Small Cell Lung Cancer, 10 µM one dose, 48 h, read-out: growth percentage
[10] = system: PC-3; assay: NCI-60 one-dose SRB screening; type: cell-based; conditions: Homo sapiens, PC-3, Prostate Cancer, 10 µM one dose, 48 h, read-out: growth percentage
[11] = system: RPMI-8226; assay: NCI-60 one-dose SRB screening; type: cell-based; conditions: Homo sapiens, RPMI-8226, Leukemia, 10 µM one dose, 48 h, read-out: growth percentage
[12] = system: SK-MEL-28; assay: NCI-60 one-dose SRB screening; type: cell-based; conditions: Homo sapiens, SK-MEL-28, Melanoma, 10 µM one dose, 48 h, read-out: growth percentage
[13] = system: SNB-19; assay: NCI-60 one-dose SRB screening; type: cell-based; conditions: Homo sapiens, SNB-19, CNS Cancer, 10 µM one dose, 48 h, read-out: growth percentage
[14] = system: TK-10; assay: NCI-60 one-dose SRB screening; type: cell-based; conditions: Homo sapiens, TK-10, Renal Cancer, 10 µM one dose, 48 h, read-out: growth percentage
[15] = system: U251; assay: NCI-60 one-dose SRB screening; type: cell-based; conditions: Homo sapiens, U-251, U251, CNS Cancer, 10 µM one dose, 48 h, read-out: growth percentage
[16] = system: NCI-59 human cancer cell lines; assay: NCI-60 one-dose SRB screening, full panel and subpanels; type: cell-based; conditions: Homo sapiens; for inhibition at 10 µM: read-out: growth-inhibitory % activity, up to; for activity at 10 µM: mean over the full panel, 10 µM one dose, 48 h, SRB, read-out: growth percentage, Mean
Procedure: The structures of the synthesized compounds 6a–h, 12a–c, 11, 13a–c, and 14a–c were submitted to the National Cancer Institute’s Developmental Therapeutics Program (NCI-DTP), and all of them were selected for preliminary in vitro anticancer activity screening against NCI-59 human cancer cell lines at a concentration of 10 µM, using the sulforhodamine B (SRB) assay to determine the growth percentage and cell viability.
The in vitro NCI-60 cell line screening assay was conducted at the National Cancer Institute (NCI), Bethesda, USA against 59 cancer cell lines representing 9 types of cancers, as reported earlier. Briefly, the human cancer cell lines were grown in RPMI 1640 medium containing 5% fetal bovine serum and 2 mM L-glutamine and inoculated into 96-well microtiter plates in 100 μL (5000 to 40,000 cells/well). Then, the plates were incubated at 37 °C, 5% CO2, 95% air, and 100% relative humidity for 24 h. After that, two plates of each cell line were fixed in situ with TCA, to represent cell population at time zero (Tz). The tested compounds were dissolved in DMSO at 400-fold and added so that the final concentration became 10 μM. The plates were then incubated for an additional 48 h followed by the addition of cold TCA to terminate the assay in case of adherent cells. Then, the cells were fixed in situ by cold 50% (w/v) TCA (50 μL; final concentration, 10% TCA) and incubated for 1 h at 4 °C. After discarding the supernatant, the plates were washed 5 times with tap water and air dried. Sulforhodamine B (SRB) solution (100 μL) at 0.4% (w/v) in 1% HOAc was added to each well, and plates were incubated for 10 min. at rt. Then, washing with 1% acetic acid was conducted 5 times to remove the unbound dye followed by air drying. After that, 10 mM trizma base was added to solubilize the bound stain, and the absorbance was read on an automated plate reader at a wavelength of 515 nm. On the other hand, the methodology for suspension cells was the same except that 50 μL of 80% TCA (final concentration, 16% TCA) was gently added to terminate the assay by fixing settled cells at the bottom of the wells. Percentage growth inhibition (GI%) was calculated as follows:
Growth percentage=Ti (test growth in the presence of compound at 10 µM )−Tz (time zero)/C (control growth)−Tz (time zero)×100 for Ti ≥ Tz;
Growth percentage=Ti (test growth in the presence of compound at 10 µM )−Tz (time zero)/Tz (time zero)×100 for Ti < Tz.
where values of 100, 40, 0, −40, and −100 mean no GI, 60% GI, no net G, 40% lethality, and all cells are dead, respectively.
Data are expressed as a one-dose mean graph of growth percentages including the mean, delta, and range.

[17] = system: HepG2 cells; assay: Apoptosis analysis, Annexin-V/PI flow cytometry; type: cell-based, human; conditions: HepG2, 5.5 or 11 µM, 24 h
Procedure: The mechanism of action of 12b was investigated by evaluating its effectiveness in modulating the cell cycle and induction of apoptosis.
Briefly, HepG2 cells (10^6 cells/mL) were treated either with 12b (5.5 or 11 µM) or with DMSO for 24 h, and then were collected after trypsinization and washed twice with 1× PBS. The induction of apoptosis was analyzed by staining cells with PE-Annexin-V [85] in the presence of PI and analyzed using the BD FACS Calibur Flow cytometer.

| SMILES | activity at 10 µM [1] [%] | activity at 10 µM [2] [%] | activity at 10 µM [3] [%] | activity at 10 µM [4] [%] | activity at 10 µM [5] [%] | activity at 10 µM [6] [%] | activity at 10 µM [7] [%] | activity at 10 µM [8] [%] | activity at 10 µM [9] [%] | activity at 10 µM [10] [%] | activity at 10 µM [11] [%] | activity at 10 µM [12] [%] | activity at 10 µM [13] [%] | activity at 10 µM [14] [%] | activity at 10 µM [15] [%] | activity at 10 µM [16] [%] | other results |
| --- | --- | --- | --- | --- | --- | --- | --- | --- | --- | --- | --- | --- | --- | --- | --- | --- | --- |
| [O-][n+]1onc(-c2ccccc2)c1CNc1ccc(Nc2nc(C(F)(F)F)nc3c2cnn3-c2ccc(Br)cc2)cc1 [12b, 3-(((4-((1-(4-bromophenyl)-6-(trifluoromethyl)-1H-pyrazolo[3,4-d]pyrimidin-4-yl)amino)phenyl)amino)methyl)-4-phenyl-1,2,5-oxadiazole 2-oxide] | 64.4 | 31.1 | 75.1 | 43.9 | 68.2 | 38.8 | 47 | 74.1 | 35.6 | 48.2 | 73.8 | 89.2 | 78.9 | 86.8 | 73.2 | 66.8 | inhibition at 10 µM ([16]; CNS cancer cell lines): ≤ 45%; inhibition at 10 µM ([16]; breast cancer cells): ≤ 61%; inhibition at 10 µM ([16]; colon cancer cell lines): ≤ 62%; inhibition at 10 µM ([16]; leukemia cell lines): ≤ 77%; inhibition at 10 µM ([16]; melanoma cell lines): ≤ 72%; inhibition at 10 µM ([16]; non-small cell lung cancer cell lines): ≤ 64%; inhibition at 10 µM ([16]; ovarian cancer cell lines): ≤ 40%; inhibition at 10 µM ([16]; prostate cancer cell lines): ≤ 52%; inhibition at 10 µM ([16]; renal cancer cell lines): ≤ 69%; induction of apoptosis [17]: induction of apoptotic pathways |
| O=c1[nH]c(CCl)nc2c1cnn2-c1ccccc1 [13a] | 98.5 | 97.6 | 105 | 115 | 110 | 79.5 | 104 | 101 | 101 | 105 | 82.5 | -89.8 | 96.3 | 154 | 93.7 | 94.2 | – |
